Test results taken from patent publication US6225321A (priority 1997, dated 2001).

Test system: Sprague Dawley rats
Test: Analgesic effect, cold ethanol bath tail flick test, intramuscular, rats
Format: in vivo, rat
Method: Sprague Dawley rats(175 to 225 g) were used. Each group consisted of 6 rats and each rats was injected once intramuscularly on the rear leg. […]
The dose for each rat was 25 micromole per kg, intramuscularly.
In the experiment, a circulating cold ethanol bath with a temperature maintained at -20° C. was set up. After dosing, the rat tail(1/3 from the tip) was immersed in the bath. The latency for the rat to flick its tail from the bath was measured to be the nociceptive threshold. The effect of various opium alkaloid preparations can be determined with this test.
The nociceptive effect can be calculated as follows: [formula]
35, 25, 15 minutes before dosing, Male Sprague Dawley rat(175-225 g) was tested to measure the basic response latency. The time to top the experiment was set at 40 seconds to prevent the tail from cold sore. No cold sore were found in 40 sec. Five minutes after the drug was given to the rat, the flick test was performed every 10 minutes or more. […]
(c) Dinalbuphine sebacoyl ester, dose was 7.8125 μ/kg, 31.25 μM/kg, 125 μM/kg.
(d) 50 mg/ml dinalbuphine sebacoyl ester parenteral dosage forms, dinalbuphine sebacoyl ester was prepared in sesame oil.

With `O=C(CCCCCCCCC(=O)Oc1ccc2c3c1O[C@H]1[C@@H](O)CC[C@@]4(O)[C@@H](C2)N(CC2CCC2)CC[C@]314)Oc1ccc2c3c1O[C@H]1[C@@H](O)CC[C@@]4(O)[C@@H](C2)N(CC2CCC2)CC[C@]314` [sebacoyl dinalbuphine ester] the “dose dependence of analgesic effect” value (FIG. 9, rats, intramuscular, 7.8125, 31.25, 125 μM/kg) was “proportional to the dose administered”, the “time to which 50% analgesic effect was extended” value (FIG. 10, intramuscular, 125 μM/kg) was 88 h and the “analgesic effect relative to Nalbuphine hydrochloride” value (intramuscular) was 8.8 times. The “duration of analgesic effect” value (rats, intramuscular, dose below 125 μM/kg) was 4 to 5 days.
